For assay [1], the system named is Staphylococcus aureus. Briefly: Antibacterial activity against Staphylococcus aureus RN4220. It counts as functional.
Assay [2] relates to Pseudomonas aeruginosa. Briefly: Antibacterial activity against Pseudomonas aeruginosa KCTC 2004. The format is functional, organism-based.
Assay [3] concerns Escherichia coli. Briefly: Antibacterial activity against Escherichia coli KCTC 1683. The format is functional, organism-based.
Assay [4] concerns Staphylococcus aureus. Briefly: Antibacterial activity against methicillin-resistant Staphylococcus aureus CCARM 3167. It counts as functional.
Assay [5] in a line: (§1) Inhibition of Staphylococcus aureus Fab1.
The test system of assay [6] is Staphylococcus aureus. The description is as §1.
The subject of assay [7] is Bacillus cereus. Briefly: Antibacterial activity against Bacillus cereus KCTC 1661. The format is functional.

Molecules are shown by their SMILES. Converted amounts (≈) assume the structure as drawn. The source made the active and inactive calls. The rule behind the calls is not given here.

For orientation: MIC means the least concentration at which growth counts as inhibited. A high value points to a less susceptible organism. Broadly, the IC50 is the concentration that gives 50% inhibition. Lower therefore signals greater potency. Regarding `COc1cc(O)c2c(=O)oc3cc(O)c(O)c(-c4c(O)c(O)cc5oc(=O)c6c(O)cc(OC)cc6c45)c3c2c1` [VERRULACTONE A], the MIC in assay [1], in assay [4] and in assay [7] was 8 µg/mL (≈ 14.6 µM) throughout. Besides, the outcome in assay [2] and in assay [3] was inactive. Besides, in assay [5], the IC50 stood at 920 nM. Besides, the inhibition result in assay [6] is “Dose-dependent effect”.

For `COc1cc(O)c2c(=O)oc3c(-c4c(O)c(O)cc5oc(=O)c6c(O)cc(OC)cc6c45)c(O)c(O)cc3c2c1` [VERRULACTONE B], the MIC in assay [1] and in assay [4] was 16 µg/mL (≈ 29.3 µM) in each case. In assay [5], this molecule returned an IC50 of 1410 nM.

Source of the values: ChEMBL document CHEMBL2010715, “Verrulactones A and B, new inhibitors of Staphylococcus aureus enoyl-ACP reductase produced by Penicillium verruculosum F375” (Bioorg Med Chem Lett, 2012).
